Measured values taken from ChEMBL document CHEMBL4229345, “Inhibition of trypanosome alternative oxidase without its N-terminal mitochondrial targeting signal (ΔMTS-TAO) by cationic and non-cationic 4-hydroxybenzoate and 4-alkoxybenzaldehyde derivatives active against T. brucei and T. congolense” (Eur J Med Chem, 2018).
Calls of active or inactive are those of the source. No cut-off for these calls is given here.

Key:
[1] = Selectivity index, ratio of CC50 for HFF cells to EC50 for bloodstream trypomastigote stage of wild-type Trypanosoma brucei brucei Lister 427; format: toxicity; conditions: human, read-out: Ratio CC50/EC50
[2] = test system: Trypanosoma brucei brucei; test: Resistance factor, ratio of EC50 for bloodstream trypomastigote stage of Trypanosoma brucei brucei AQP triple knock out to EC50 for bloodstream trypomastigote stage of wild-type Trypanosoma brucei brucei Lister 427; format: functional
[3] = test system: Trypanosoma brucei brucei; test: Anti-parasitic activity against bloodstream trypomastigote stage of Trypanosoma brucei brucei with AQP2/3-dd knock out after 48 hrs by resazurin-based assay; format: functional, organism-based
[4] = Inhibition of recombinant N-terminal His6 tagged SUMO-fused Trypanosoma brucei brucei TC221 TAO MTS deletion mutant expressed in Escherichia coli FN102 preincubated for 2 mins followed by ubiquinol-1 addition measured over 2 mins by double beam-dual wavelength UV-spectrophotometry
[5] = Resistance factor, ratio of EC50 for bloodstream trypomastigote stage of pentamidine/diminazene/melaminophenyl arsenical resistant Trypanosoma brucei B48 to EC50 for bloodstream trypomastigote stage of wild-type Trypanosoma brucei brucei Lister 427; format: functional
[6] = test system: Trypanosoma brucei brucei; test: Anti-parasitic activity against bloodstream trypomastigote stage of Trypanosoma brucei brucei with AQP triple knock out after 48 hrs by resazurin-based assay; format: functional, organism-based
[7] = test system: Trypanosoma brucei brucei; test: Resistance factor, ratio of EC50 for bloodstream trypomastigote stage of Trypanosoma brucei brucei with AQP2/3-dd knock out to EC50 for bloodstream trypomastigote stage of wild-type Trypanosoma brucei brucei Lister 427; format: functional
[8] = test system: Trypanosoma brucei brucei; test: Resistance factor, ratio of EC50 for bloodstream trypomastigote stage of wild-type Trypanosoma brucei brucei Lister 427 in presence of 5 mM glycerol to EC50 for bloodstream trypomastigote stage of wild-type Trypanosoma brucei brucei Lister 427; format: functional
[9] = Selectivity index, ratio of CC50 for HEK cells to EC50 for bloodstream form of Trypanosoma congolense IL3000; format: toxicity; conditions: human, read-out: Ratio CC50/EC50
[10] = test system: Trypanosoma brucei brucei; test: Anti-parasitic activity against bloodstream trypomastigote stage of wild-type Trypanosoma brucei brucei Lister 427 after 48 hrs in presence of 5 mM glycerol by resazurin-based assay; format: functional, organism-based; conditions: Lister 427, 48 h
[11] = Cytotoxicity against HEK cells assessed as reduction in cell viability after 30 hrs by resazurin-based assay; conditions: human
[12] = Noncompetitive inhibition of recombinant N-terminal His6 tagged SUMO-fused Trypanosoma brucei brucei TC221 TAO MTS deletion mutant expressed in Escherichia coli FN102 preincubated for 2 mins followed by ubiquinol-1 addition measured over 2 mins by Lineweaver-Burk plot analysis
[13] = Selectivity index, ratio of CC50 for HEK cells to EC50 for bloodstream trypomastigote stage of wild-type Trypanosoma brucei brucei Lister 427; format: toxicity; conditions: human, read-out: Ratio CC50/EC50
Trypanosoma congolense [14] = test: Anti-parasitic activity against bloodstream form of Trypanosoma congolense IL3000 after 48 hrs by resazurin-based assay; format: functional, organism-based; conditions: IL3000, 48 h
[15] = test system: Trypanosoma brucei brucei; test: Anti-parasitic activity against bloodstream trypomastigote stage of wild-type Trypanosoma brucei brucei Lister 427 after 48 hrs by resazurin-based assay; format: functional, organism-based; conditions: Lister 427, 48 h
Trypanosoma brucei = test: Anti-parasitic activity against bloodstream trypomastigote stage of pentamidine/diminazene/melaminophenyl arsenical resistant Trypanosoma brucei B48 after 48 hrs by resazurin-based assay; format: functional, organism-based; conditions: B48, 48 h
[16] = test system: Trypanosoma brucei brucei; test: Potency index, ratio of diminazene EC50 to test compound EC50 for anti-parasitic activity against bloodstream trypomastigote stage of wild-type Trypanosoma brucei brucei Lister 427; format: functional
[17] = Half life in mouse serum by LC/MS analysis; format: ADME, cell-free
[18] = Cytotoxicity against HFF cells assessed as reduction in cell viability after 30 hrs by resazurin-based assay; conditions: human
[19] = Stability in mouse serum assessed as compound hydrolysis after 2 hrs by LC/MS analysis; format: ADME, cell-free; conditions: read-out: Drug degradation
Trypanosoma congolense [20] = test: Potency index, ratio of diminazene EC50 to test compound EC50 for anti-parasitic activity against bloodstream form of Trypanosoma congolense IL3000; format: functional
[21] = Stability in mouse serum assessed as compound hydrolysis after 24 hrs by LC/MS analysis; format: ADME, cell-free; conditions: read-out: Drug degradation
[22] = Selectivity index, ratio of CC50 for HFF cells to EC50 for bloodstream form of Trypanosoma congolense IL3000; format: toxicity; conditions: human, read-out: Ratio CC50/EC50
[23] = Stability in horse serum assessed as compound hydrolysis after 2 hrs by LC/MS analysis; format: ADME, cell-free, Equus caballus; conditions: read-out: Drug degradation
[24] = Drug metabolism in human liver S9 fraction assessed as CYP450 mediated compound hydrolysis by measuring parent compound remaining at 5 uM measured after 120 mins in presence of NADPH by RP-HPLC analysis; format: ADME, subcellular; conditions: read-out: Stability
[25] = test system: Trypanosoma brucei rhodesiense; test: In vivo anti-parasitic activity against luciferase tagged Trypanosoma brucei rhodesiense STIB900 infected in NMRI mouse assessed as cured mouse at 10 mg/kg, ip for 4 consecutive days starting at day 3 post infection; format: functional, organism-based
[26] = Drug metabolism in human liver S9 fraction assessed as CYP450 mediated compound hydrolysis by measuring parent compound remaining at 5 uM measured after 60 mins in presence of NADPH by RP-HPLC analysis; format: ADME, subcellular; conditions: read-out: Stability
[27] = Drug metabolism in human liver S9 fraction assessed as CYP450 mediated compound hydrolysis by measuring parent compound remaining at 5 uM measured immediately in presence of NADPH by RP-HPLC analysis; format: ADME, subcellular; conditions: read-out: Stability
[28] = test system: Trypanosoma brucei rhodesiense; test: In vivo anti-parasitic activity against luciferase tagged Trypanosoma brucei rhodesiense STIB900 infected in NMRI mouse assessed as reduction in parasitemia at 10 mg/kg, ip for 4 consecutive days starting at day 3 post infection and measured 3 days hrs after last treatment on day 10 (reference value: 0%); format: functional; design: scale not given: the % may be the effect or the level left
[29] = Drug metabolism in human liver S9 fraction assessed as CYP450 mediated compound hydrolysis by measuring parent compound remaining at 5 uM measured after 15 mins in presence of NADPH by RP-HPLC analysis; format: ADME, subcellular; conditions: read-out: Stability
[30] = Drug metabolism in human liver microsomes assessed as CYP450 mediated compound hydrolysis by measuring parent compound remaining at 5 uM measured after 120 mins in presence of NADPH by RP-HPLC analysis; format: ADME; conditions: read-out: Stability
[31] = test system: Trypanosoma brucei rhodesiense; test: In vivo anti-parasitic activity against luciferase tagged Trypanosoma brucei rhodesiense STIB900 infected in NMRI mouse assessed as reduction in parasitemia at 10 mg/kg, ip for 4 consecutive days starting at day 3 post infection and measured after last treatment on day 7 (reference value: 0%); format: functional; design: scale not given: the % may be the effect or the level left
[32] = Drug metabolism in human liver microsomes assessed as CYP450 mediated compound hydrolysis by measuring parent compound remaining at 5 uM measured immediately in presence of NADPH by RP-HPLC analysis; format: ADME; conditions: read-out: Stability
[33] = Competitive inhibition of recombinant N-terminal His6 tagged SUMO-fused Trypanosoma brucei brucei TC221 TAO MTS deletion mutant expressed in Escherichia coli FN102 preincubated for 2 mins followed by ubiquinol-1 addition measured over 2 mins by Lineweaver-Burk plot analysis
[34] = Drug metabolism in human liver S9 fraction assessed as UGT mediated compound hydrolysis by measuring parent compound remaining at 5 uM measured after 120 mins in presence of UDPGA by RP-HPLC analysis; format: ADME, subcellular; conditions: read-out: Stability
[35] = Drug metabolism in human liver microsomes assessed as CYP450 mediated compound hydrolysis by measuring parent compound remaining at 5 uM measured after 30 mins in presence of NADPH by RP-HPLC analysis; format: ADME; conditions: read-out: Stability
[36] = Drug metabolism in human liver S9 fraction assessed as UGT mediated compound hydrolysis by measuring parent compound remaining at 5 uM measured immediately in presence of UDPGA by RP-HPLC analysis; format: ADME, subcellular; conditions: read-out: Stability
[37] = Drug metabolism in human liver S9 fraction assessed as CYP450 mediated compound hydrolysis by measuring parent compound remaining at 5 uM measured after 30 mins in presence of NADPH by RP-HPLC analysis; format: ADME, subcellular; conditions: read-out: Stability
[38] = Stability in horse serum assessed as compound hydrolysis after 24 hrs by LC/MS analysis; format: ADME, cell-free, Equus caballus; conditions: read-out: Drug degradation
[39] = Drug metabolism in human liver S9 fraction assessed as UGT mediated compound hydrolysis by measuring parent compound remaining at 5 uM measured after 30 mins in presence of UDPGA by RP-HPLC analysis; format: ADME, subcellular; conditions: read-out: Stability
[40] = Drug metabolism in human liver S9 fraction assessed as UGT mediated compound hydrolysis by measuring parent compound remaining at 5 uM measured after 60 mins in presence of UDPGA by RP-HPLC analysis; format: ADME, subcellular; conditions: read-out: Stability
[41] = Drug metabolism in human liver microsomes assessed as CYP450 mediated compound hydrolysis by measuring parent compound remaining at 5 uM measured after 60 mins in presence of NADPH by RP-HPLC analysis; format: ADME; conditions: read-out: Stability
[42] = Drug metabolism in human liver S9 fraction assessed as UGT mediated compound hydrolysis by measuring parent compound remaining at 5 uM measured after 15 mins in presence of UDPGA by RP-HPLC analysis; format: ADME, subcellular; conditions: read-out: Stability
[43] = Drug metabolism in human liver microsomes assessed as CYP450 mediated compound hydrolysis by measuring parent compound remaining at 5 uM measured after 15 mins in presence of NADPH by RP-HPLC analysis; format: ADME; conditions: read-out: Stability

O=C(OCCCCCCCCCCCCBr)c1ccc(O)cc1O
selectivity ratio [1]: > 27
Ratio EC50 [2]: 0.32
EC50 [3]: 10000 nM
IC50 [4]: 17.4 nM
Ratio EC50 [5]: 1.03
EC50 [6]: 4700 nM
Ratio EC50 [7]: 0.69
Ratio EC50 [8]: 0.42
selectivity ratio [9]: > 7.7
EC50 [10]: 6200 nM
CC50 at 30 h [11]: > 400000 nM

O=COCCCCCCCCCCCCCCCCOC(=O)c1ccc(O)cc1O
Ki [12]: 71.4 nM
selectivity ratio [13]: > 34
Ratio EC50 [2]: 0.11
EC50 [3]: 5000 nM
IC50 [4]: 14.4 nM
Ratio EC50 [5]: 1.1
EC50 [6]: 1270 nM
EC50 (Trypanosoma congolense [14]): > 100000 nM
Ratio EC50 [7]: 0.42
Ratio EC50 [8]: 0.43
EC50 [15]: 11900 nM
EC50 [10]: 5100 nM
CC50 at 30 h [11]: > 400000 nM
EC50 (Trypanosoma brucei): 13000 nM

Cc1cc(O)ccc1C(=O)OCCCCCCCCCCCCCC[P+](c1ccccc1)(c1ccccc1)c1ccccc1.[Br-]
Ratio EC50 [16]: 5 - 40
half-life [17]: 1 h
selectivity ratio [1]: > 83000
Ratio EC50 [2]: 2
CC50 at 30 h [18]: > 200000 nM
EC50 [3]: 2.2 nM
IC50 [4]: 81 nM
Ratio EC50 [5]: 0.9
EC50 [6]: 5 nM
metabolised at 2 h [19]: 70%
Ratio EC50 (Trypanosoma congolense [20]): 5 - 40
EC50 (Trypanosoma congolense [14]): 39 nM
Ratio EC50 [7]: 0.92
Ratio EC50 [8]: 1.32
metabolised at 24 h [21]: > 99%
selectivity ratio [22]: > 5130
metabolised at 2 h [23]: < 20%
EC50 [15]: 2.4 nM
EC50 [10]: 3.2 nM
EC50 (Trypanosoma brucei): 2.2 nM

Cc1cc(O)cc(O)c1C(=O)OCCCCCCCCCCCCCC[P+](c1ccccc1)(c1ccccc1)c1ccccc1.[Br-]
remaining at 2 h, 5 µM [24]: 94.1%
Activity [25]: inactive
remaining at 1 h, 5 µM [26]: 96.4%
Ratio EC50 [16]: 5 - 40
remaining at 0 min, 5 µM [27]: 100%
Activity [28]: 27.9%
selectivity ratio [1]: > 125000
Ratio EC50 [2]: 0.89
remaining at 0.25 h, 5 µM [29]: 92.3%
CC50 at 30 h [18]: > 200000 nM
remaining at 2 h, 5 µM [30]: 93.1%
EC50 [3]: 0.8 nM
Activity [31]: 94.7%
remaining at 0 min, 5 µM [32]: 100%
IC50 [4]: 88 nM
Ratio EC50 [5]: 1.2
EC50 [6]: 1.4 nM
Ratio EC50 (Trypanosoma congolense [20]): 5 - 40
EC50 (Trypanosoma congolense [14]): 5 nM
Ki [33]: 870 nM
Ratio EC50 [7]: 0.51
Ratio EC50 [8]: 0.92
remaining at 2 h, 5 µM [34]: 52.6%
metabolised at 24 h [21]: < 20%
remaining at 0.5 h, 5 µM [35]: 86%
remaining at 0 min, 5 µM [36]: 100%
remaining at 0.5 h, 5 µM [37]: 101%
metabolised at 24 h [38]: < 30%
remaining at 0.5 h, 5 µM [39]: 66.9%
selectivity ratio [22]: > 40000
remaining at 1 h, 5 µM [40]: 58.2%
EC50 [15]: 1.6 nM
EC50 [10]: 1.4 nM
remaining at 1 h, 5 µM [41]: 93.4%
EC50 (Trypanosoma brucei): 1.9 nM
remaining at 0.25 h, 5 µM [42]: 79.4%
remaining at 0.25 h, 5 µM [43]: 93.4%
